Laboratory results: patent US5225528A, “Cyclic hexapeptide oxytocin antagonists” (priority 1990, dated 1993)
Like-named read-outs stand apart in the source and are kept apart here. Numbered stars: 1 amine (or outer) side, 2 acyl side, 3 side chain; on linkers, the order of the positions; unused ones are H or OH. Square brackets hold non-standard residues; d marks the D form. Peptide text beside a SMILES is read from it. * marks the point of attachment. X5 = CC(C)(C)OC(=O)CN1CCN([*:1])[C@H](C(=O)[*:2])C1; dPiz(1,6-dehydro) = O=C(O)[C@H]1CCC=NN1; d2Nal = N[C@H](Cc1ccc2ccccc2c1)C(=O)O; dNMeY = CN[C@H](Cc1ccc(O)cc1)C(=O)O; X1 = O=C([C@H]1C=CCCN1[*:1])[*:2]; Pip(4-aza) = O=C(O)[C@@H]1CNCCN1; dNMeF = CN[C@H](Cc1ccccc1)C(=O)O; Pip = O=C(O)[C@@H]1CCCCN1; dPip = O=C(O)[C@H]1CCCCN1; Cbz = O=C(OCc1ccccc1)*; Boc = CC(C)(C)OC(=O)*; Dha = C=C(N)C(=O)O; Bn = c1ccc(C*)cc1; OtBu = CC(C)(C)O*

Legend:
AVP-V2 sites = biological target: T1, AVP-V2 sites (Rattus norvegicus, UniProt Q00788); assay: [^3 H]AVP binding to crude membrane preparation of male rat kidney medulla (AVP-V2 sites)
T1 construct: male rat liver (AVP-V1 sites) or kidney medulla (AVP-V2 sites); from tissue; host or cells: male rat kidney medulla, crude membranes
Method: (§1) Nonspecific binding (5-10% of the total binding) was determined using 10 μM unlabeled AVP, and the binding reaction was terminated by filtration as described above for the [^3 H]OT binding assay.

AVP-V1 sites = biological target: T2, AVP-V1 sites (Rattus norvegicus, UniProt P30560); assay: [^3 H]AVP binding to crude membrane preparation of male rat liver (AVP-V1 sites)
T2 construct: crude membrane preparation of male rat liver (AVP-V1 sites); from tissue; host or cells: male rat liver, crude membranes
Method: as §1

uterine OT receptors = biological target: T3, uterine OT receptors (Rattus norvegicus, UniProt P70536); assay: [^3 H]OT binding to uterine OT receptors, crude membrane preparation of uteri from DES-treated rats; conditions: for IC50: rat uterus membranes, 1 nM [^3 H]OT, read-out: Receptor Binding Results IC50 (nM) [^3 H]OT; for inhibition at 0.1 µM: @ 100 (nM)
T3 construct: from tissue; host or cells: uterus of DES-treated rats, crude membranes
T3 sequence (P70536 1-388): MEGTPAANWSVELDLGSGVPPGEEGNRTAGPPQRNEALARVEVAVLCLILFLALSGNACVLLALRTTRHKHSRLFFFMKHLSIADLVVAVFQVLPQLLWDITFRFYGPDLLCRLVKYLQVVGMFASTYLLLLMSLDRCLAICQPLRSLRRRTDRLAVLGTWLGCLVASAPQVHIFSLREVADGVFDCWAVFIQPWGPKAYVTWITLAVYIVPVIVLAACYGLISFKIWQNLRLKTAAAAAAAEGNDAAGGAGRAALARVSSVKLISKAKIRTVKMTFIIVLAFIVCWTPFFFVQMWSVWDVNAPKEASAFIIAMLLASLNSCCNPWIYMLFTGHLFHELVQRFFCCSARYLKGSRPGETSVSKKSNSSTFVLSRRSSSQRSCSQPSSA
Method: Competition studies were conducted at equilibrium (60 minutes; 22° C.) using 1 nM [^3 H]OT in the following assay buffer: 50 mM Tris-HCl, 5 mM MgCl2, and 0.1% BSA, pH 7.4.

[1] = rat kidney medulla membranes, 2 nM [^3 H]AVP, read-out: Receptor Binding Results IC50 (nM) [^3 H]-AVP-V2
[2] = Receptor Binding Results IC50 (nM) [^3 H]-AVP-V1
[3] = read-out: Receptor Binding Results IC50 (nM) [^3 H]-AVP-V2
[4] = read-out: Receptor Binding Results IC50 (nM) [^3 H]-AVP-V1
[5] = 1 h, read-out: [^3 H]OT: percent inhibition of radioligand at the given concentration

T1 sequence (Q00788 whole entry): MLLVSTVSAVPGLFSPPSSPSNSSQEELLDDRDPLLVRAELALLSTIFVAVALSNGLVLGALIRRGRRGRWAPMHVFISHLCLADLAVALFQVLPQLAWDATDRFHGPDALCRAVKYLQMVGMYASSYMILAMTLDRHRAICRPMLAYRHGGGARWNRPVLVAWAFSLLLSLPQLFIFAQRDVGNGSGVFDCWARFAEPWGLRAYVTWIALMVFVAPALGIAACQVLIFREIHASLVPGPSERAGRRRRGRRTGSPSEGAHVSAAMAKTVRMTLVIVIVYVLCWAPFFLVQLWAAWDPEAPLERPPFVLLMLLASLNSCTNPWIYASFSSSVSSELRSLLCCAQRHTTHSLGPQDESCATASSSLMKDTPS
T2 sequence (P30560 whole entry): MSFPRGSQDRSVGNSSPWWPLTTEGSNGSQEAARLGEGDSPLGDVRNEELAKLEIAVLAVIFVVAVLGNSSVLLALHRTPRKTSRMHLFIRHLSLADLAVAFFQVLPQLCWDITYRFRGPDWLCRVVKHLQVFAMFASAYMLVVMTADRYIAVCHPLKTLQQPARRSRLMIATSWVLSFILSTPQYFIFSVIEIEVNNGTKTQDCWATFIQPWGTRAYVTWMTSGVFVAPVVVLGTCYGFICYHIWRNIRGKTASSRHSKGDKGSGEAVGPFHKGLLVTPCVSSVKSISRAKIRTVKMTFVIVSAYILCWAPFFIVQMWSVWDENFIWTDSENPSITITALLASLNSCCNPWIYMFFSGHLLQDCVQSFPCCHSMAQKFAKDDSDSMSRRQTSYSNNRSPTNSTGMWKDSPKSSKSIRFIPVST

CC[C@H](C)[C@@H]1NC(=O)[C@@H](Cc2ccccc2)NC(=O)[C@@H]2CCCN2C(=O)C(Cc2cccnc2)NC(=O)[C@@H]2CCCCN2C(=O)[C@H]2CCCCN2C1=O (single isomer, unassigned) [Example 10 (isomer 1), Cyclo[D-Phe-L-Ile-D-Pip-L-Pip-D,L-3-PyrAla-L-Pro]]
IC50 (AVP-V2 sites; [1]): > 10000 nM | IC50 (AVP-V1 sites; [2]): > 10000 nM | IC50 (uterine OT receptors): 1000 nM

CC[C@H](C)[C@@H]1NC(=O)[C@@H](Cc2ccccc2)NC(=O)[C@@H]2CCCN2C(=O)[C@@H](Cc2ccccc2)N(C)C(=O)[C@H](CCCCNC(=O)OC(C)(C)C)NC(=O)[C@H]2CCC=NN2C1=O [Example 173, C-[D-Phenylalanyl-L-isoleucyl-D-Δ-piperazyl-L-(N^ε -t-Butyloxycarbonyl)-Lysl-M-Me-D-phenylalanyl-L-prolyl]] (cyclo(I[dPiz(1,6-dehydro)]K(Boc)[dNMeF]P[dF]))
IC50 (AVP-V2 sites; [3]): 2800 nM | IC50 (AVP-V1 sites; [4]): 1500 nM | IC50 (uterine OT receptors): 71 nM

C=C1NC(=O)[C@H]2CCCN2C(=O)[C@H]([C@@H](C)CC)NC(=O)[C@@H](Cc2ccccc2)NC(=O)[C@@H]2CCCN2C(=O)[C@@H](Cc2ccccc2)N(C)C1=O [Example 117, c-[D-Phenylalanyl-L-isoleucyl-D-prolyl-dehydroalanyl-N-methyl-D-phenylalanyl-L-prolyl]] (cyclo([Dha][dNMeF]P[dF]I[dP]))
IC50 (AVP-V2 sites; [1]): > 10000 nM | IC50 (AVP-V1 sites; [2]): > 10000 nM | IC50 (uterine OT receptors): > 10000 nM

CC[C@H](C)[C@@H]1NC(=O)[C@@H](Cc2c[nH]c3ccccc23)NC(=O)[C@@H]2CCCN2C(=O)[C@@H](Cc2c[nH]c3ccccc23)NC(=O)[C@H](CCCCNC(=O)OCc2ccccc2)NC(=O)[C@H]2CCCCN2C1=O [Example 29, Cyclo[D-tryptophanyl-L-isoleucyl-D-pipecolyl-L-(carbobenzloxy)lysyl-D-tryptophanyl-L-prolyl]] (cyclo(I[dPip]K(Cbz)[dW]P[dW]))
IC50 (AVP-V2 sites; [1]): > 10000 nM | IC50 (AVP-V1 sites; [2]): > 10000 nM | inhibition at 0.1 µM (uterine OT receptors; [5]): 32%

CC[C@H](C)[C@@H]1NC(=O)[C@@H](Cc2c[nH]c3ccccc23)NC(=O)[C@@H]2CCCN2C(=O)[C@@H](Cc2ccccc2)N(C)C(=O)[C@@H]2CN(CC(=O)OC(C)(C)C)CCN2C(=O)[C@H]2CCCCN2C1=O [Example 180, C-[D-Tryptophanyl-L-isoleucinyl-D-pipecolyl-L-piperazin-2-yl (4-t-butylacetyl)-D-(N^α -Me)phenylalanyl-L-prolyl]] (cyclo([dW]I[dPip][X5][dNMeF]P))
inhibition at 10 µM (AVP-V2 sites; 0.5 h, @ 10,000 (nM), read-out: [^3 H]-AVP-V2: percent inhibition of radioligand at the given concentration): 79% | [^3 H]-AVP-V1: percent inhibition of radioligand at the given concentration (AVP-V1 sites; @ 10,000 (nM)): 44% | IC50 (uterine OT receptors): 150 nM

CC[C@H](C)[C@@H]1NC(=O)[C@@H](Cc2c[nH]c3ccccc23)NC(=O)[C@@H]2CCCN2C(=O)[C@@H](Cc2ccccc2)N(C)C(=O)[C@H](CCCCN)NC(=O)[C@H]2CCCCN2C1=O [Example 132, c-[D-Tryptophanyl-L-isoleucyl-D-pipecolyl-L-lysyl-D-(N-methyl)phenylalanyl-L-prolyl]] (cyclo(I[dPip]K[dNMeF]P[dW]))
IC50 (AVP-V2 sites; [1]): 10000 nM | IC50 (AVP-V1 sites; [2]): > 10000 nM | IC50 (uterine OT receptors): 65 nM

CCOc1ccc(C[C@H]2NC(=O)[C@@H]3CCCN3C(=O)[C@@H](Cc3ccccc3)NC(=O)[C@H](CC(N)=O)NC(=O)[C@@H]([C@H](C)O)NC(=O)[C@H]([C@@H](C)CC)NC2=O)cc1 [Example 99] (cyclo([dY](Et)I[dT]N[dF]P))
IC50 (AVP-V2 sites; [1]): > 10000 nM | IC50 (AVP-V1 sites; [2]): > 10000 nM | IC50 (uterine OT receptors): > 10000 nM

CC[C@H](C)[C@@H]1NC(=O)[C@@H](Cc2c[nH]c3ccccc23)NC(=O)[C@@H]2CCCN2C(=O)[C@@H](Cc2ccccc2)NC(=O)[C@@H]2CNCCN2C(=O)[C@H]2CCCCN2C1=O [Example 87, c-[D-Tryptophanyl-L-isoleucinyl-D-pipecolyl-L-piperazin-2-yl-D-phenylalanyl-L-prolyl]] (cyclo(I[dPip][Pip(4-aza)][dF]P[dW]))
IC50 (AVP-V2 sites; Receptor Binding Results IC50 (nM) [^3 H]-AVP-V2): > 1000 nM | IC50 (AVP-V1 sites; [2]): > 10000 nM | IC50 (uterine OT receptors): 62 nM

CC[C@H](C)[C@@H]1NC(=O)[C@@H](Cc2ccccc2)NC(=O)[C@@H]2CCCN2C(=O)[C@@H](Cc2ccccc2)N(C)C(=O)[C@H](CCCCN)NC(=O)[C@H]2CCC=NN2C1=O [Example 174, c-[D-Phenylalanyl-L-isoleucyl-D-Δ-piperazyl-L-Lysyl-N-Me-D-phenylalanyl-L-prolyl]] (cyclo(I[dPiz(1,6-dehydro)]K[dNMeF]P[dF]))
IC50 (AVP-V2 sites; [3]): 570 nM | IC50 (AVP-V1 sites; [4]): 610 nM | IC50 (uterine OT receptors): 21 nM

CC[C@H](C)[C@@H]1NC(=O)[C@@H](Cc2ccc3ccccc3c2)NC(=O)[C@@H]2CCCN2C(=O)[C@@H](Cc2ccccc2)N(C)C(=O)[C@H](CCCCN)NC(=O)[C@H]2CCCCN2C1=O [Example 141, C-[D-2-Napthylalanyl-L-isoleucyl-D-pipecolyl-L-lysyl-D-(N-methyl)phenylalanyl-L-prolyl]] (cyclo([d2Nal]I[dPip]K[dNMeF]P))
[^3 H]-AVP-V2: percent inhibition of radioligand at the given concentration (AVP-V2 sites; @ 1,000 (nM)): 78% | [^3 H]-AVP-V1: percent inhibition of radioligand at the given concentration (AVP-V1 sites): 48% | IC50 (uterine OT receptors): 45 nM

CCOc1ccc(C[C@H]2NC(=O)[C@@H]3CCCN3C(=O)[C@@H](Cc3ccccc3)N(C)C(=O)[C@@H]3CCCCN3C(=O)[C@H]3CCCCN3C(=O)[C@H]([C@@H](C)CC)NC2=O)cc1 [Example 122, c-[(O-Ethyl)-D-tyrosyl-L-isoleucyl-D-pipecolyl-L-pipecolyl-N-methyl-D-phenylalanyl-L-prolyl]] (cyclo(I[dPip][Pip][dNMeF]P[dY](Et)))
IC50 (AVP-V2 sites; [3]): 695 nM | IC50 (AVP-V1 sites; [2]): > 10000 nM | IC50 (uterine OT receptors): 130 nM

CC[C@H](C)[C@@H]1NC(=O)[C@@H](Cc2c[nH]c3ccccc23)NC(=O)[C@@H]2CCCN2C(=O)[C@@H](Cc2ccccc2)N(C)C(=O)[C@@H]2CNCCN2C(=O)[C@H]2CCC=NN2C1=O [Example 170, c-[D-Tryptophanyl-L-isoleucinyl-D-Δ-piperazyl-L-piperazin-2-yl-N^α -Me-D-phenylalanyl-L-prolyl]] (cyclo(I[dPiz(1,6-dehydro)][Pip(4-aza)][dNMeF]P[dW]))
IC50 (AVP-V2 sites; [3]): 175 nM | IC50 (AVP-V1 sites; [4]): 6850 nM | IC50 (uterine OT receptors): 3.1 nM

CC[C@H](C)[C@@H]1NC(=O)[C@@H](Cc2c[nH]c3ccccc23)NC(=O)[C@@H]2CCCN2C(=O)[C@@H](CC(=O)OC(C)(C)C)NC(=O)[C@@H]2CCCCN2C(=O)[C@H]2CCCCN2C1=O [Example 172, c-[D-Tryptophanyl-L-isoleucinyl-D-pipecolyl-L-pipecolyl-D-(β-t-butyl)aspartyl-L-prolyl]] (cyclo(I[dPip][Pip][dD](OtBu)P[dW]))
IC50 (AVP-V2 sites; [1]): > 10000 nM | IC50 (AVP-V1 sites; [2]): > 10000 nM | inhibition at 0.1 µM (uterine OT receptors; [5]): 20%

CC[C@H](C)[C@@H]1NC(=O)[C@@H](Cc2c[nH]c3ccccc23)NC(=O)[C@@H]2CCCN2C(=O)[C@@H](Cc2ccccc2)N(C)C(=O)[C@@H]2CCCCN2C(=O)[C@H]2CCCCN2C1=O [Example 30, Cyclo[D-tryptophanyl-L-isoleucyl-D-pipecolyl-L-pipecolyl-D(N^α methyl)phenylalanyl-L-prolyl]] (cyclo(I[dPip][Pip][dNMeF]P[dW]))
IC50 (AVP-V2 sites; [3]): 747 nM | IC50 (AVP-V1 sites; [4]): 12000 nM | IC50 (uterine OT receptors): 20 nM

CC[C@H](C)[C@@H]1NC(=O)[C@@H](Cc2ccccc2)NC(=O)[C@@H]2CCCN2C(=O)[C@@H](Cc2ccccc2)N(C)C(=O)[C@@H]2CCCCN2C(=O)[C@H]2C=CCCN2C1=O [Example 24, Cyclo[D-phenylanyl-L-isoleucyl-D-(3,4-dehydro)-pipecolyl-L-pipecolyl-D-(N^α methyl)phenyalanyl-L-prolyl]] (cyclo(I[X1][Pip][dNMeF]P[dF]))
IC50 (AVP-V2 sites; [1]): 10000 nM | IC50 (AVP-V1 sites; [2]): > 10000 nM | IC50 (uterine OT receptors): 640 nM

CC[C@H](C)[C@@H]1NC(=O)[C@@H](Cc2ccc(O)cc2)NC(=O)[C@@H]2CCCN2C(=O)[C@@H](Cc2ccccc2)N(C)C(=O)[C@H](CCCCNC(=O)OC(C)(C)C)NC(=O)[C@H]2CCCCN2C1=O [Example 148, C-[D-Tyrosyl-L-isoleucyl-D-pipecolyl-L-(N-t-butyloxycarbonyl)lysyl-D-(N-methyl)phenylalanyl)-L-prolyl] (cyclo(I[dPip]K(Boc)[dNMeF]P[dY]))
IC50 (AVP-V2 sites; [1]): > 10000 nM | IC50 (AVP-V1 sites; [2]): > 10000 nM | inhibition at 1 µM (uterine OT receptors; 1 h, @ 1,000 (nM), read-out: [^3 H]OT: percent inhibition of radioligand at the given concentration): 50%

CC[C@H](C)[C@@H]1NC(=O)[C@@H](Cc2c[nH]c3ccccc23)NC(=O)[C@@H]2CCCN2C(=O)[C@@H](Cc2ccc(OCc3ccccc3)cc2)N(C)C(=O)[C@@H]2CCCCN2C(=O)[C@H]2CCCCN2C1=O [Example 33, Cyclo[D-tryptophanyl-L-isoleucyl-D-pipecolyl-L-pipecolyl-D-(N^α methyl-O-benzyl)tyrosyl-L-prolyl]] (cyclo(I[dPip][Pip][dNMeY](Bn)P[dW]))
IC50 (AVP-V2 sites; [1]): > 10000 nM | IC50 (AVP-V1 sites; [2]): > 10000 nM | IC50 (uterine OT receptors): 100 nM
